Drawing on PubChem BioAssay AID366 (MTDP, 2006), this text covers IC50 for 49 compounds.

As usually defined, the IC50 is the concentration that inhibits the measured activity by half.

Activity calls are given as the source filed them. How the calls were made is not given here.

Chain of Ribonuclease H1 (Homo sapiens) (O60930 whole entry, looked up): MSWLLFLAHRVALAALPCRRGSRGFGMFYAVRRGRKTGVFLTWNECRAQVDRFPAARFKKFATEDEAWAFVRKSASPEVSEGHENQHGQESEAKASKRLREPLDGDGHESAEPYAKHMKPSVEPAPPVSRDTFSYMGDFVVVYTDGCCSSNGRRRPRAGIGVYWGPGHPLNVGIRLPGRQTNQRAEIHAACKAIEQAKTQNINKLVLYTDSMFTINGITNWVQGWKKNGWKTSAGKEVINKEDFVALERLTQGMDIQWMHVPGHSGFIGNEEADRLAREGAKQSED

The assay has as its target Ribonuclease H1 (Homo sapiens) (UniProt O60930). Briefly: inhibition of human ribonuclease H1 activity – biochemical, FRET RNA/DNA duplex cleavage, dose response (AID 366).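 Further: potency is for inhibitors that lower RNA cleavage and so lower fluorescence.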 The note with it: human RNase H1, FRET RNA/DNA duplex cleavage, fluorescence.
For the compound `CC1=C(CCC(=O)O)c2cc3nc(cc4[nH]c(cc5[nH]c(cc1n2)c(C)c5C(C)O)c(C)c4C(C)O)C(C)=C3CCC(=O)O` (centres undefined), the IC50 is 0.4 µM.
For the compound `CN(C)CN1CSC(=S)N(CN(C)C)C1`, the IC50 result is “inactive”.
As for `COc1cc(C)cc2c(-c3c(O)cc(O)c4c3C[C@@H](C)N[C@@H]4C)cc(-c3cc(-c4c(O)cc(O)c5c4C[C@@H](C)N[C@@H]5C)c4cc(C)cc(OC)c4c3O)c(O)c12`, the figure is 2 µM.
With `O=C1NC(=S)S/C1=C/c1cccc(OCc2ccc(Cl)c(Cl)c2)c1`, the IC50 was 7.3 µM.
As for `O=C1C=C/C(=N\S(=O)(=O)c2cc(Cl)ccc2Cl)C=C1Cl`, the figure is 1.6 µM; as for `CC(C)=Cc1cc(CCC/C(C)=C/Cc2c(O)cc(C)c(C(=O)O)c2O)co1`, 1.1 µM.
Regarding `COc1cc(/C=N\c2sc3c(c2C(=O)NCc2ccccc2)CCCC3)cc(Cl)c1O`, the IC50 was 2 µM.
In the case of `Oc1c(Br)cc(/C=N/Nc2nnc3c(n2)[nH]c2ccccc23)c(Br)c1O`, the IC50 was 0.3 µM.
As for `O=C1C(Cl)=CC(=NS(=O)(=O)c2ccccc2)C=C1Cl`, the figure is 4.3 µM; as for `O=C(O)C1Nc2c(Cl)cc(Cl)cc2C2C=CCC12` (centres undefined), 8.8 µM.
`FC(F)(F)c1nc2ccc(SSc3ccc4nc(C(F)(F)F)[nH]c4c3)cc2[nH]1`: the IC50 is 1.7 µM.
Take `N#C/C(=C\Nc1ccc(S(=O)(=O)Nc2nccs2)cc1)c1nc(-c2ccc(Cl)cc2)cs1`: the IC50 is 0.5 µM.
On to `Cc1onc(-c2ccccc2)c1C(=O)Nc1sc(C)c(C)c1C(N)=O`, for which the IC50 is 8 µM.
As for `Oc1cc(CN2COc3ccccc32)c(O)cc1CNC1CCCCC1`, the entry is “inactive”; as for `O=C1c2ccccc2C(=O)c2c(O)c(O)cc(O)c21`, 4.2 µM; as for `O=C(NC(=S)Nc1cc(-c2nc3ccccc3s2)ccc1Cl)c1ccc(F)cc1`, 0.8 µM.
As for `Cc1ccc(C)n1-c1ccc(Br)cc1C(=O)O`, the figure is 9 µM; as for `Cc1cc(-c2ccc(C=C3C(=O)NC(=S)NC3=O)o2)c([N+](=O)[O-])cc1C`, 4 µM; as for `Cc1ccc(-c2n[nH]c(=S)n2/N=C/c2ccc(O)c(O)c2O)cc1`, “inactive”.
As for `O=C(Nc1ccc(N2CCN(C(=O)c3ccccc3)CC2)cc1)c1ccc(-c2ccccc2)cc1`, the IC50 was 0.35 µM.
As for `O=C1/C(=C/c2ccc(O)c(O)c2)SC(=S)N1c1ccc(O)cc1`, the figure is 3.5 µM.
As for `O=C1C=C(NCCc2cc(Br)c(O)c(Br)c2)C(=O)c2ncccc21`, the IC50 is 6.8 µM.
Regarding `Cc1cc(Cl)ccc1OCC(=O)Nc1sc(C)c(C)c1C(N)=O`, the IC50 is 4.3 µM.
For `COc1ccc(N2C(=O)/C(=C\c3cn(CC(=O)Nc4ccccc4)c4ccccc34)C(=O)NC2=S)cc1`, the IC50 was 0.62 µM.
Take `CC(C)=CCC/C(C)=C/Cc1cc(/C=C/c2cc(O)c(C/C=C(\C)CCC=C(C)C)c(O)c2)cc(O)c1O`: the IC50 is 1.3 µM.
As to `COc1cccc2cc(C(N)=O)c(=O)oc12`, the IC50 result is “inactive”.
As for `Cc1c(O)c(Br)c(C)c(O)c1Br` (tested in a mixture with another compound), the entry is “inactive”; as for `COc1ccc(C(=O)NC(=S)Nc2ccc3nn(-c4ccc(C)c(Cl)c4)nc3c2)cc1[N+](=O)[O-]`, 0.56 µM.
For the compound `CC(C)=CCC[C@]1(C)[C@@H](CC=C(C)C)C[C@@]2(CC=C(C)C)C(=O)/C(=C(\O)c3ccc(O)c(O)c3)C(=O)[C@]1(CC=C(C)C)C2=O`, the IC50 was 3.2 µM.
Turning to `Cc1sc(NC(=O)c2ccc(Br)o2)c(C(N)=O)c1C`, the IC50 was 5 µM.
Regarding `O=c1oc2ccccc2c(O)c1/C=C1\C=Nc2ccccc21`, the IC50 was 9.7 µM.
As for `O=C1C(Cl)=C/C(=N\S(=O)(=O)c2ccc(Cl)cc2)C(Cl)=C1Cl`, the figure is 4.6 µM; as for `O=C1C=CC(=NS(=O)(=O)c2ccc(Cl)c([N+](=O)[O-])c2)C=C1`, 2.1 µM; as for `C[C@@H]1[C@H](O)c2c(c3c(c4c(-c5ccccc5)cc(=O)oc24)OC(C)(C)C=C3)O[C@@H]1C`, 4.8 µM.
With `O=c1c(O)c(-c2ccc(O)c(O)c2)oc2cc(O)cc(O)c12`, the IC50 is 3 µM.
As for `Cc1cc(Br)ccc1N1C(=O)/C(=C/c2ccco2)C(=O)NC1=S`, the figure is 0.8 µM.
As for `Cc1cc(O)c2c(c1O)C(=O)c1cccc(O)c1C2=O`, the entry is “inactive”; as for `O=C(Oc1ccccc1)Oc1c(Cl)cc2oc(=O)sc2c1Cl`, 3 µM; as for `C[N+](C)=c1ccc2nc3c(cc(Nc4ccccc4)c4ccccc43)oc-2c1`, 1.6 µM.
As for `O=C1NN(c2ccc(I)cc2)C(=O)/C1=C\c1ccc(O)c(O)c1`, the figure is 8.3 µM; as for `CN(C)S(=O)(=O)c1ccc(Nc2ccc(O)c3c2C(=O)c2c([N+](=O)[O-])ccc(O)c2C3=O)cc1`, 0.8 µM; as for `COc1cc([C@@H]2c3cc4c(cc3C[C@H]3COC(=O)[C@@H]32)OCO4)cc(OC)c1O`, 1.8 µM.
In the case of `CCOc1ccc(C(=O)Nc2ccc3c(c2)C(=O)c2ccccc2C3=O)cc1`, the IC50 was 1.1 µM.
As for `CC1=C(C)CC(C(=O)Nc2ccc(N3C(=O)c4ccccc4C3=O)cc2)C(C(=O)O)C1` (centres undefined), the entry is “inactive”; as for `Cc1ccc(C)n1-c1ccc(O)c(C(=O)O)c1`, 0.9 µM; as for `Cc1cc(C(=O)O)ccc1-n1c(C)ccc1C`, “inactive”.
Consider `COc1ccc(-c2c(C#N)c(N)nc(SCC(=O)c3ccc(O)c(O)c3)c2C#N)cc1`, for which the IC50 was 1.1 µM.
Consider `Cc1nn(CC(=O)Nc2sc(C)c(C)c2C(N)=O)c(C)c1[N+](=O)[O-]`, for which the IC50 was 6 µM.
As for `COc1ccc(NC(=O)c2c(N)sc(-c3ccccc3)c2C)cc1`, the figure is 2 µM.
